How the values were obtained:
[1] = hygroscopicity at 92% relative humidity; format: physicochemical; details: crystals kept at 92% relative humidity and room temperature for up to 37 days
[2] = solid state chemical stability on storage at elevated temperature and relative humidity; format: physicochemical; details: for BPPF% / mono(POC) PMPA fumarate%: 75% relative humidity, 0 days; for mono(POC) PMPA fumarate%: degradation product in stored BPPF
Text: The solid state chemical stability of cBPPF and bis(POC)PMPA•citrate salt was compared by analyzing each compound after storage under different conditions.

[3] = human, in vivo

## 9-[2-(R)-[[Bis[[(isopropoxycarbonyl)oxy]methoxy]phosphinoyl]methoxy]propyl]adenine• fumaric acid [BPPF]
[1]
  hygroscopicity: not hygroscopic
[2]; 40°C
  BPPF%: 99.0%
  mono(POC) PMPA fumarate%: 1.0%
[2]; 60°C
  BPPF%: 99.0%
  mono(POC) PMPA fumarate%: 1.0%
[2]; powder, storage at elevated temperature and relative humidity
  solid state chemical stability compared with bis(POC)PMPA citrate salt: more stable
[3]
  oral bioavailability: 30-40%
